Assay results taken from BindingDB's records for doi:10.1021/bi9005896 (Albert Einstein College of Medicine, 2009).

Biological target: T1, Purine nucleoside phosphorylase (Homo sapiens, UniProt P00491)
T1 sequence (P00491 whole entry): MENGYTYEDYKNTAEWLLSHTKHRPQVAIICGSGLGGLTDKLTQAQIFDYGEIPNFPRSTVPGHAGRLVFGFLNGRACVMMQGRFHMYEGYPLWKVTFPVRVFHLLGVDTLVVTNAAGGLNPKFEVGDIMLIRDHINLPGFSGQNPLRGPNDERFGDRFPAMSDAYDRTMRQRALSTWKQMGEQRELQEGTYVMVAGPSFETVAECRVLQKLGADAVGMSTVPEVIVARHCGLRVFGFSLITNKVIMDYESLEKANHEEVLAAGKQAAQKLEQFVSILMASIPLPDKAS
Test: Inhibtion Assay
Description: Inhibition assay using human PNP.

Kd: 0.383 nM
Structure (SMILES): O=c1[nH]cnc2c(CN3CCC(O)C3)c[nH]c12 (stereo unspecified) [Immucillins, 11]
